{"source": "patent US12152264B2", "about": "“Phosphinothricin dehydrogenase mutant, genetically engineered bacterium and one-pot multi-enzyme synchronous directed evolution method” (ZHEJIANG UNIVERSITY OF TECHNOLOGY, priority 2020, dated 2024)", "key": {"[1]": {"target": "Pseudomonas fluorescens phosphinothricin dehydrogenase (PPTDH, PfGluDH; WP_150701510.1) mutant A164G_R205K_T332A, SEQ ID No.1 (Pseudomonas azerbaijanoccidentalis, UniProt A0ABS6QXK2, A164G/R205K/T332A)", "assay_type": "biochemical", "conditions": "A164G_R205K_T332A; pH 7.0, 40° C."}, "[2]": {"target": "Pseudomonas fluorescens phosphinothricin dehydrogenase (PPTDH, PfGluDH; NCBI accession number WP_150701510.1), wild type (Pseudomonas azerbaijanoccidentalis, UniProt A0ABS6QXK2)", "assay": "Determination of kinetic parameters of wild-type phosphinothricin dehydrogenase (PPO reductive amination with NADPH)", "conditions": "pH 7.0, 40° C."}}}
{"smiles": "NC(=O)C1=CN([C@@H]2O[C@H](COP(=O)(O)OP(=O)(O)OC[C@H]3O[C@@H](n4cnc5c(N)ncnc54)[C@H](OP(=O)(O)O)[C@@H]3O)[C@@H](O)[C@H]2O)C=CC1", "note": "[NADPH]", "values": [{"measurement": "kcat/Km^A (NADPH)", "setting": "[1]", "value": "1.05761e+07", "unit": "M⁻¹ s⁻¹"}, {"measurement": "kcat/Km^A (NADPH)", "setting": "[2]", "value": 53360, "unit": "M⁻¹ s⁻¹"}]}
